# Measured values: patent US20250215017A1, “TGF-ß INHIBITOR COMPOUND AND USE THEROF” (Medinno Pharmaceutical Technology (Zhuhai) Co., Ltd., priority 2022, published 2025)
# Target: human TGFβR1 (Homo sapiens (Human), UniProt P36897)
# Experiment: ADP-Glo kinase activity assay: TGFβR1 phosphorylates TGFβR1tide
# Assay type: biochemical
# Settings: ATP 5 uM, TGFβR1 0.5 ng/ul, TGFβR1tide 0.1 ug/ul, 60 minutes at room temperature
# Method: The principle of the activity assay was that TGFβR1 phosphorylates the substrate TGFβR1tide, consuming ATP in the process. This experiment employed the ADP-Glo method to detect kinase activity and determine the IC50 value, which was used to evaluate the inhibitory ability of the test compounds against human TGFβR1. In the experiment, DSM was used as a negative control, and LY364947 was used as a positive control. The specific experimental steps were as follows. Compounds were diluted 4-fold in DMSO in a dilution plate, with the final starting concentration of the compounds being 10 μM, across 10 concentration gradient points. The compounds were then further diluted 50-fold into the kinase reaction buffer and incubated on a shaker for 20 minutes. Kinase was formulated with an enzyme reaction buffer. 2 μl kinase was added to each well of the reaction plate. 1 μl of the compound diluted in buffer was added to each well, and then the plate was sealed with a sealing membrane and centrifuged at 1000 g for 30 seconds, leaving it at room temperature for 10 minutes. Solutions of TGFβR1tide and ATP were prepared with the kinase reaction buffer, and 2 μL of the TGFβR1tide/ATP solution was added to the reaction plate. The plate was sealed with a sealing film and centrifuged at 1000 g for 30 seconds. It was allowed to react at room temperature for 60 minutes. Subsequently, 4 μL of ADP-Glo was transferred to a 384-well reaction plate and centrifuged at 1000 rpm/min for 1 minute, followed by incubation at 25° C. for 40 minutes. Then, 8 μL of Detection solution was transferred to the 384-well reaction plate and centrifuged at 1000 rpm/min for 1 minute, after which it was incubated at 25° C. for 40 minutes. The RLU (Relative Luminescence Unit) signal was read using a BMG microplate reader, which was used to characterize the degree of kinase activity.
# 3.1 The inhibition rate was calculated as follows: inhibition rate of compound (% inh)=100%−(compound−positive control)/(negative control−positive control)*100%.
# The IC50 (half inhibition concentration) of a compound was obtained using the following non-linear fitting equation, wherein data analysis was performed using Graphpad 7.0 software.
# • 3.3.1 After an experimenter completed the report writing, another experimenter conducted a second inspection to ensure the accuracy of data analysis. • 3.3.2 Data were exported from BMG and analyzed manually. • 3.3.2.1 The ratios were converted to inhibition rates and IC50 was calculated by Prism GraphPad 7.0 from the inhibition rates. • 3.3.2.2 IC50 was calculated again by the ratios to verify accuracy of the results.
# human TGFβR1, sequence (P36897 34-503): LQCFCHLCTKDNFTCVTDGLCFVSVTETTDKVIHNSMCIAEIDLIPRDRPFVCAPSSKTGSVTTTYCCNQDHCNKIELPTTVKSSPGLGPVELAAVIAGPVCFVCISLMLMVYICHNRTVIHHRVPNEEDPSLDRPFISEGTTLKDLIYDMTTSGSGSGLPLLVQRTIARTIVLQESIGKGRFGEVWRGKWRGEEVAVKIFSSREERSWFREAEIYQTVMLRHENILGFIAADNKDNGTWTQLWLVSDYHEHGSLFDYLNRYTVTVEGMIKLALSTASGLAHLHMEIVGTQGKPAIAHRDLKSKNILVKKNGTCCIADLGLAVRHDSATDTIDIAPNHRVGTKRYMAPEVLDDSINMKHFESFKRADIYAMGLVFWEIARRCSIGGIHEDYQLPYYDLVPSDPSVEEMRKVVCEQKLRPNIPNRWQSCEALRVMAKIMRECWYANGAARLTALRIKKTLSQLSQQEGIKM
row,SMILES,IC50
1,"Cc1cccc(-c2nc3n(c2-c2ccc4[nH]ncc4c2)CC2CC32)n1 (stereo not drawn) [Compound 5, 3-(1H-Indazol-5-yl)-2-(6-methylpyridin-2-yl)-5,5a,6,6a-tetrahydrocyclopropane[3,4]pyrrolo[1,2-a]imidazole]",15 nM
2,"Cc1cccc(-c2nc3n(c2-c2ccnc(-c4nc5c([nH]4)CNC5)c2)CC2CC32)n1 (stereo not drawn) [Compound 8, 2-(6-Methylpyridin-2-yl)-3-(2-(1,4,5,6-tetrahydropyrrolo[3,4-d]imidazol-2-yl)pyridin-4-yl)-5,5a,6,6a-tetrahydrocyclopropane[3,4]pyrrolo[1,2-a]imidazole]",22 nM
3,"Cc1cccc(-c2nc3n(c2-c2ccc4ncn(C)c4c2)CC2CC32)n1 (stereo not drawn) [Compound 16, 3-(1-Methyl-1H-benzo[d]imidazol-6-yl)-2-(6-methylpyridin-2-yl)-5,5a,6,6a-tetrahydrocyclopropane[3,4]pyrrolo[1,2-a]imidazole]",4.9 nM
4,"Cc1cccc(-c2nc3n(c2-c2ccc4ncnn4c2)CC2CC32)n1 (stereo not drawn) [Compound 18, 3-([1,2,4]Triazolyl[1,5-a]pyridin-6-yl)-2-(6-methylpyridin-2-yl)-5,5a,6,6a-tetrahydrocyclopropane[3,4]pyrrolo[1,2-a]imidazole]",5.6 nM
5,"Cc1cccc(-c2nc3n(c2-c2ccc4nccn4c2)CC2CC32)n1 (stereo not drawn) [Compound 19, 3-(Imidazolo[1,2-a]pyridin-6-yl)-2-(6-methylpyrridin-2-yl)-5,5a,6,6a-tetrahydrocyclopropane[3,4]pyrrolo[1,2-a]imidazole]",50 nM
6,"Cc1cccc(-c2nc3n(c2-c2ccc4ncoc4c2)CC2CC32)n1 (stereo not drawn) [Compound 20, 6-(2-(6-Methylpyridin-2-yl)-5,5a,6,6a-tetrahydrocyclopropane[3,4]pyrrolo[1,2-a]imidazol-3-yl)benzo[d]oxazole]",38 nM
7,"Cc1cccc(-c2nc3n(c2-c2ccc4ncsc4c2)CC2CC32)n1 (stereo not drawn) [Compound 21, 6-(2-(6-Methylpyridin-2-yl)-5,5a,6,6a-tetrahydrocyclopropane[3,4]pyrrolo[1,2-a]imidazol-3-yl)benzo[d]thiazole]",6 nM
8,"Cc1cccc(-c2nc3n(c2-c2ccc4nc[nH]c4c2)CC2CC32)n1 (stereo not drawn) [Compound 35, 3-(1H-Benzo[d]imidazol-6-yl)-2-(6-methylpyridin-2-yl)-5,5a,6,6a-tetrahydrocyclopropyl[3,4]pyrrolo[1,2-a]imidazole]",12 nM
9,"Cc1cccc(-c2nc3n(c2-c2ccn4nccc4c2)CC2CC32)n1 (stereo not drawn) [Compound 36, 2-(6-Methylpyridin-2-yl)-3-(pyrazolo[1,5-a]pyridin-5-yl)-5,5a,6,6a-tetrahydrocyclopropyl[3,4]pyrrolo[1,2-a]imidazole]",13 nM
